Experimental data: PubChem BioAssay (NCI)
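Values below derive from 48-hour exposures of cells grown in 96-well plates, with endpoints linearly interpolated between the two concentrations bracketing the appropriate inhibition level. TGI: concentration producing complete growth inhibition.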

Assays:
Test in all cases: inhibition of tumour cell growth, NCI panel, 48 h
[1] = system: K-562 leukemia
[2] = system: LOX IMVI melanoma
[3] = system: OVCAR-3 ovarian
[4] = system: SF-295 CNS
[5] = system: M14 melanoma
[6] = system: UO-31 renal
[7] = system: SK-MEL-5 melanoma
[8] = system: NCI-H460 lung
[9] = system: NCI-H23 lung
[10] = system: MALME-3M melanoma

Measured: TGI

CN(C)Cc1cc(O)c(O)c(CN(C)C)c1
59.3 µM: [5]
52.5 µM: [8]
> 100 µM: all other assays above

O=C1c2c(nc3ccccc3c2-c2ccccc2)CN1Nc1ccccn1
51.6 µM: [6]
> 83.2 µM: [8]
> 100 µM: all other assays above

CCOC(=O)/C=C(\C(=O)OCC)n1ccc(N)nc1=O
> 100 µM: all assays above

CCCNC(C#N)c1ccc(C(C#N)NCCC)cc1 (stereo not given)
> 100 µM: all assays above

CC(C)(C)C1(COC(=O)c2ccc(N)cc2)COC1
> 100 µM: all assays above

COc1cc(CC2c3cc(OC)c(OC)cc3CCN2C)c(Oc2cc3c(cc2OC)-c2c(O)c(OC)cc4c2C(C3)N(C)CC4)cc1OC (stereo not given)
44.8 µM: [8]
32.8 µM: [7]
> 100 µM: [1] | [3]
35.4 µM: [4]
67.9 µM: [2]
53.8 µM: [10]
36.1 µM: [6]
42.8 µM: [9]
22.8 µM: [5]

COC(=O)/C=C(/C(=O)OC)c1c(C)c(C)c2c(C)cc(C)cc(C)c1-2
37.3 µM: [5]
> 100 µM: all other assays above

O=C1C(Br)=CC2(C=C1Br)CCNC1=C2C(=O)c2cccnc2C1=O
17.9 µM: [3]
19.8 µM: [8]
21.5 µM: [10]
18.9 µM: [2]
21.3 µM: [5]
6.84 µM: [1]
18.2 µM: [9]
68.5 µM: [6]
21 µM: [4]
12.8 µM: [7]

O=c1c(C=Nc2ccc([N+](=O)[O-])cc2)c(O)n(-c2ccccc2)c(=O)n1-c1ccccc1
> 100 µM: all assays above

NC(=S)Nc1[nH]c(=S)nc2c1SC1=N/C(=C\c3ccco3)C(=O)N12
> 66.5 µM: [1]
> 83.3 µM: [10]
> 100 µM: all other assays above

Cc1cc(S(=O)(=O)O)c(NC(=O)C(=O)C2C=CCS2(=O)=O)cc1Cl (stereo not given)
> 100 µM: all assays above
